The test system of one data set is MCMV. The data set can be described thus: Inhibition of mouse CMV replication in BALB/c mice. In kind it is in vivo. The protocol:
For infection experiments BALB/c mice, 4-6 week old, were purchased from Harlan Laboratories (Indianapolis, Ind.). The Animal Care and Use Committee of Johns Hopkins University approved the experimental procedures. After 2-3 days of adaptation to the housing environment, mice were randomly divided into several groups as follows: control, infected, infected+OZ418 1 mg/kg, 3 mg/kg or 10 mg/kg orally once daily, infected+AS 10 mg/kg orally twice daily, infected+GCV 10 mg/kg intraperitoneally twice daily. Mice were infected intraperitoneally with 10^6 PFU/mice (0.1 mL in […] saline) and all treatments were started at 24 hpi. Control mice received 0.1 ml of saline intraperitoneally. Control and infected mice received equivalent volumes of saline. Mice were sacrificed at day 14 after infection. Salivary glands, liver and spleen were harvested and stored at −80° C. Organs were homogenized in DMEM with 4% FBS at a final concentration of 100 mg/mL. Two million MEFs were seeded into 24-well plates. From each sample, 5% of the salivary gland homogenate or 10% of the liver homogenate was used for infection of MEFs in triplicates. Plaques were counted after three days.

For data set [1], the system named is pp28 luciferase-recombinant Towne HCMV. The data set can be described thus: pp28-luciferase Towne HCMV replication assay in HFFs. In kind it is cell-based, human cytomegalovirus. The protocol: (§1) Six ozonizes have been tested for inhibition of HCMV replication and toxicity in human foreskin fibroblasts (Table 1, FIG. 1). The pp28 luciferase-recombinant Towne was used to measure HCMV replication, and an MTT assay—for cell viability. […] (FIG. 1).
(§2) The pp28-luciferase Towne CMV strain was constructed as previously described (31). The recombinant virus expresses luciferase under the control of UL99 (pp28) late promoter 48-72 h post infection (hpi). […] Luciferase activity highly correlates with plaque reduction assay. The Towne CMV (ATCC VR-977) and TB40 strains (ATCC VR-1578) were used for plaque reduction, DNA replication, and cell cycle assays.
HFFs passage 12-16 (ATCC, CRL-2088) were grown in Dulbecco's Modified Eagle Medium (DMEM) containing 10% fetal bovine serum (FBS) (Gibco, Carlsbad, Calif.) in a 5% CO2 incubator at 37° C. and used for infection with pp28-luciferase Towne CMV. HCT116 (Human Colorectal Carcinoma) (ATCC, CCL-247) cells were maintained in DMEM containing 10% fetal bovine serum.
(§3) To determine the effect of cell density/cycling on the anti-HCMV activity of ozonides, HFFs were plated at 0.5×10^6, 1×10^6, 2×10^6 or 3×10^6 cells/96 well-plate 24 h prior to infection. Infection was carried out at multiplicity of infection of 1 PFU/cell (MOI=1). Following 90 minute adsorption, media containing virus was removed and replaced by DMEM with 4% FBS (Gibco) containing anti-viral compounds. Infected treated HFFs were collected at 72 hpi and pp28 activity was quantified by a Luciferase Assay Kit (Promega, Madison, Wis.) on GloMaxH-Multi+ Detection System (Promega) according to manufacturer's instructions.

Another data set has as its system HCMV-infected HFFs. The data set can be described thus: Cell cycle progression by flow cytometry, HCMV-infected HFFs. It counts as cell-based, human. To be noted: HCMV-infected cells, 30 μM, 24 h and 72 h. The protocol: To identify the cell cycle stage affected by OZ418, non-infected HFFs were serum starved for 72 h and then released in DMEM with 0% FBS (control for G0 arrest), 10% FBS (control for cell cycle progression), or 10% FBS plus OZ418 (30 μM), AS (30 μM), or GCV (30 μM) for 24 h and 72 h, respectively. To determine the effects of OZ418 on cell cycle progression in infected HFFs, 1.0×10^6 cells were serum starved for 72 h, and then infected with HCMV Towne strain (MOI=1) followed by treatment with OZ418 (30 μM), AS (30 μM), or GCV (5 μM) for 24 h and 72 h, respectively. The cells were collected by treatment with trypsin and then washed with PBS. The collected cells were fixed in 5 ml of cold 70% ethanol overnight at 4° C. and resuspended in […] of staining buffer (50 μg/ml propidium iodide [Sigma-Aldrich] and 0.2 mg/ml RNase A in PBS) for 45 min at 37° C. in 5% CO2. The samples were analyzed on an LSR II flow cytometer (BD Biosciences, San Jose, Calif.), and at least 10,000 cells were counted for each sample. Data analysis was performed using FlowJo software (Tree Star, USA). The percentage of cells in G1/S/G2-M is shown in each condition.

The next data set is described as follows: MTT cell viability assay. In kind it is cell-based. Conditions: human foreskin fibroblasts. How it is done:
Six ozonizes have been tested for inhibition of HCMV replication and toxicity in human foreskin fibroblasts (Table 1, FIG. 1). The pp28 luciferase-recombinant Towne was used to measure HCMV replication, and an MTT assay—for cell viability.
Cells were seeded in 96-well plates, treated with various concentrations of ozonides and incubated at 37° C. for 3 days. Cell viability was determined by an MTT-based colorimetric assay (Sigma-Aldrich), and performed at the same time points as the antiviral assay.

Data set [2] deals with HCMV in high density and low density HFFs. The data set can be described thus: Effect of cell density on anti-HCMV activity (pp28 luciferase). In kind it is cell-based, human cytomegalovirus. How it is done: as §3
The subject of the next data set is HCMV TB40 strain. The data set can be described thus: Plaque reduction assay in HFFs. Conditions: Human betaherpesvirus 5, read-out: EC50 in plaque reduction assay. It counts as cell-based, human cytomegalovirus. How it is done: as §1, §2
A plaque reduction assay was performed in HFFs. One day prior to infection, HFFs were seeded at 3×10^6 cells/24-well plate. The Towne CMV strain was diluted in DMEM to a desired titer which gave approximately 50 plaques/well and added to each well in quadruplicates. Plates were incubated for 90 minutes with shaking every 10 min; thereafter compounds were added and replenished every 3 days. After a 10-day incubation, cells were stained with crystal violet and plaques were counted at 40× magnification.

From patent US11246854B2, “Ozonides for treating or preventing virus infections” (THE JOHNS HOPKINS UNIVERSITY, priority 2017, dated 2022) come the findings set out here.

Entries after “also recorded” stand apart in the source; their conditions may differ.

On to `O=C(O)COc1ccc([C@H]2CC[C@]3(CC2)OO[C@]2(O3)C3CC4CC(C3)CC2C4)cc1` [OZ418], for which the “MCMV inhibition compared to AS” value in the data set with MCMV (OZ418 once daily vs AS orally twice daily, FIG. 5 D-F) is given as “more effective in MCMV inhibition”. Moreover, in the data set on MCMV (salivary gland, liver and spleen, day 14 after infection, OZ418 1, 3 or 10 mg/kg orally once daily), the “MCMV replication in organs” value is “effectively inhibits mouse CMV replication; also recorded: dose response was observed”. In addition, in data set [1] (CC50/EC50), the “Selectivity index (SI)” value amounted to 13.06 ± 0.48. The EC50 in data set [1] (Human betaherpesvirus 5) came out at 9.8 ± 0.25 µM; in the data set on HCMV TB40 strain, 8.53 ± 0.09 µM. Also, the Cell cycle progression entry with HCMV-infected HFFs is recorded as “delayed cell cycle progression”. In addition, half-maximal cytotoxicity in “MTT cell viability assay” (CC50 at 3 days) was put at 128 ± 8 µM. Further, the “HCMV inhibition in high-density HFFs” value in data set [2] (high-density HFFs, FIG. 8A) is on record as “effectively inhibited HCMV”. For the same compound, the “Cell-density dependence of anti-HCMV activity” value in data set [2] (low density and high density human fibroblast cells) is listed as “cell-density dependent”. The “Activity against HCMV in low-density HFFs” value in data set [2] (low-density HFFs, FIG. 8A) was “significantly reduced”.
